Like-named read-outs stand apart in the source and are kept apart here. Values belong to the molecule of their own block, whether it stands above or below them.
Legend:
[1] = system: FOPFlash luciferase (reporter with eight mutant Tcf binding sites); type: cell-based, human
Method: (§1) FuGENE 6 (E2962, Promega) in a 96-well plate format was used for the transfection of HEK293 and SW480 cells according to the manufacturer's instructions. […] SW480 cells were co-transfected with 60 ng of the TOPFlash or FOPFlash reporter gene and 40 ng pCMV-RL normalization reporter. Cells were cultured in DMEM and 10% fatal bovine serum at 37° C. for 24 h, and different concentrations of inhibitors were then added. After 24 h, the luciferase reporter activity was measured using the Dual-Glo system (E2940, Promega). Normalized luciferase activity in response to the treatment with the inhibitors was compared with that obtained from the cells treated with DMSO. Experiments were performed in triplicate.

SW480 cells = experiment: MTs cell viability assay, SW480; type: cell-based, human; settings: for IC50: Homo sapiens, SW480, MTs cell viability, 72 h, read-out: IC50 ± SD SW480; for growth of SW480 cells: result in words, MTs
Method: (§2) Colorectal cancer cell lines, SW480, HT29, an HCT116, and human normal cell line HEK293 were seeded in 96-well plates at 4×10^3 cells/well, maintained overnight at 37° C., and incubated with the tested compounds at various concentrations. Cell viability was monitored after 72 h using a freshly prepared mixture of 1 part phenazine methosulfate (PMS, Sigma) solution (0.92 mg/mL) and 19 parts 3-(4,5-dimethylthiazol-2-yl)-5-(3-carboxymethoxyphenyl)-2-(4-sulfophenyl)-2H-tetrazolium (MTs, Promega) solution (2 mg/mL). Cells were incubated in 10 μL of this solution at 37° C. for 3 h, and A490 was measured. […] Experiments were performed in triplicate.

[2] = system: Wnt/β-catenin target genes in SW480 cells
Method: Total RNAs were extracted with TRIzol (Ser. […] The threshold cycle (CT) values were normalized to that of internal reference GAPDH. The primer pairs for human GAPDH were forward: [NT] and reverse: [NT]; for human HPRT forward: [NT] and reverse: [NT]; for human AXIN2 forward: [NT] and reverse: [NT]; for human c-myc forward: [NT] and reverse: [NT]; and for human cyclin D1 forward: [NT] and reverse: [NT]. Experiments were performed in triplicate.

[3] = system: canonical Wnt signaling in pcDNA3.1-β-catenin transfected HEK293 cells; experiment: TOPFlash luciferase reporter assay, HEK293; type: cell-based, human; settings: for TOPFlash luciferase activity / transactivation of canonical Wnt signaling: result in words, Wnt-activated HEK293
Method: as §1

HCT116 cells = experiment: MTs cell viability assay, HCT116; type: cell-based, human; settings: for growth of HCT116 cells: result in words, MTs; for IC50: Homo sapiens, HCT-116, MTs cell viability, 72 h, read-out: IC50 ± SD HCT116
Method: as §2

HT29 cells = experiment: MTs cell viability assay, HT29; type: cell-based; settings: Homo sapiens, HT-29, 72 h, read-out: IC50 ± SD HT29
Method: as §2

β-catenin/APC-R3 = target: T1, β-catenin/APC-R3 (Homo sapiens, UniProt P35222); settings: FP selectivity assay, known inhibitors, footnotes a, b; read-out: Ki ± SD β-catenin/APC-R3; cited from earlier work
T1 construct: Wild-type β-catenin and its mutants (residues 138-686) were cloned; 6xHis; made in house; host or cells: E. coli BL21 DE3
T1 sequence (P35222 138-686): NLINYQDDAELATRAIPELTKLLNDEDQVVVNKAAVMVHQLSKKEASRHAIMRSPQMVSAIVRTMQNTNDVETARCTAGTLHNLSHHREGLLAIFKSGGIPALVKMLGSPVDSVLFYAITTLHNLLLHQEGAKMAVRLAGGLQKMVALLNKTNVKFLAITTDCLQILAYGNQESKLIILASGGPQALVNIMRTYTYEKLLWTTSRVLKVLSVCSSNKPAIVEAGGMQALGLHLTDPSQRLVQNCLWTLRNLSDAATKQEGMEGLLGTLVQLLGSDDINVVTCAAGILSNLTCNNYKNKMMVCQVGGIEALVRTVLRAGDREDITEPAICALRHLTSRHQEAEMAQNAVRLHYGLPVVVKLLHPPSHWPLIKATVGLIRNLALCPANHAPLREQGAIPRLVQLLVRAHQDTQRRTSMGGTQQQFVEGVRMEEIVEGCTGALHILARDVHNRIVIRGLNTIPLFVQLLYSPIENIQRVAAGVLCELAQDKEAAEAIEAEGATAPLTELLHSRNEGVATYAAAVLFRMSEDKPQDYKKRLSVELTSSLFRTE

β-catenin/Tcf4 = target: T2, β-catenin/Tcf4 (Homo sapiens, UniProt P35222); settings: FP selectivity assay, known inhibitors, footnotes a, b; read-out: Ki ± SD β-catenin/Tcf4; cited from earlier work
T2 sequence (P35222 138-686): T1 sequence (P35222 138-686)

β-catenin/Tcf4 PPI [4] = target: T3, β-catenin/Tcf4 PPI (Homo sapiens, UniProt P35222); experiment: biochemical
T3 sequence (P35222 138-686): T1 sequence (P35222 138-686)
From the text: (§3) After β-catenin and fluorescein-Tcf4 form a protein-protein complex, the fluorophore is attached to a high-molecular-weight protein complex (≥60 kDa) and has a low rotational speed when it is excited by plane-polarized light. […] When an inhibitor completely disrupts the β-catenin/fluorescein-Tcf4 PPI, the fluorophore is only attached to Tcf4 (≤6 kDa), and the emitted light after excitation will be largely depolarized due to a high rotational speed of the fluorophore. AlphaScreen is a bead-based assay. […] On laser excitation at 680 nm, the photo sensitizers inside the donor beads convert ambient oxygen to a singlet oxygen state. Only when the donor and acceptor beads are brought within 200 nm can the singlet oxygen molecules diffuse to the acceptor beads, resulting in extensive emission at 570 nm.

β-catenin/Tcf4 PPI [5] = target: T3, β-catenin/Tcf4 PPI; settings: for inhibitory potency for the β-catenin/Tcf PPI in the biochemical assays: result in words, FP and AlphaScreen
From the text: as §3

β-catenin/Tcf4 PPI [6] = target: T3, β-catenin/Tcf4 PPI
From the text: as §3

[7] = read-out: FP Ki ± SD, Table 6, fragments of 18
[8] = read-out: Ki ± SD FP, Table 8, resynthesized 18 and derivatives
[9] = read-out: Ki ± SD AlphaScreen, Table 8, resynthesized 18 and derivatives

Compound: c1ccc2c(c1)c1nc3nonc3nc1n2CCc1nnn[nH]1 [Compound 37, 5-(2-(2H-Tetrazol-5-yl)Ethyl)-5H-[1,2,5]Oxadiazolo[3′,4′:5,6]Pyrazino[2,3-B]Indole]
FOPFlash luciferase activity ([1]; even at 200 μM, pcDNA3.1-β-catenin transfected HEK293): did not affect
IC50 (SW480 cells): 20 µM
expression of house-keeping gene HPRT ([2]; SW480): did not affect
expression of AXIN2, cyclin D1, and c-myc (mRNA) ([2]; SW480, dose-dependent): down-regulated
TOPFlash luciferase activity / transactivation of canonical Wnt signaling [3]: suppressed the TOPFlash luciferase activity in a dose-dependent manner

Compound: Nc1nonc1NC(=O)Cn1c2ccccc2c2nc3nonc3nc21 [Compound 26, 2-(5H-[1,2,5]Oxadiazolo[3′,4′:5,6]Pyrazino[2,3-B]Indol-5-yl)-N-(4-Amino-1,2,5-Oxadiazol-3-yl)Acetamide]
growth of SW480 cells (SW480 cells): did not exhibit the inhibitory activities
growth of HCT116 cells (HCT116 cells): did not exhibit the inhibitory activities
TOPFlash luciferase activity / transactivation of canonical Wnt signaling [3]: did not inhibit

IC50 (HT29 cells): 1.8 ± 0.13 µM
IC50 (SW480 cells): 5.5 ± 1.3 µM
IC50 (HCT116 cells): 1.2 ± 0.48 µM
Compound: COC1=C(C[C@H](C)O)C2c3c(c(O)cc4c3-c3c(cc(O)c5c3C2C(C[C@H](C)O)=C(OC)C5=O)OCO4)C1=O (stereo partly shown) [Compound 2]
Ki (β-catenin/APC-R3): 130 ± 0.38 µM
Ki (β-catenin/Tcf4): 150 ± 19 µM

Ki (β-catenin/Tcf4 PPI [4]): > 2 mM
Compound: CC(C)CNC(=O)c1nonc1N [Compound 24]

Compound: COC(=O)CCn1c2ccccc2c2nc3nonc3nc21 [Compound 30, Methyl 3-(5H-[1,2,5]Oxadiazolo[3′,4′:5,6]Pyrazino[2,3-B]Indol-5-yl)Propanoate]
growth of SW480 cells (SW480 cells): did not exhibit the inhibitory activities
growth of HCT116 cells (HCT116 cells): did not exhibit the inhibitory activities

Ki (β-catenin/Tcf4 PPI [4]): > 2 mM
Compound: NC(=O)c1nonc1N [Compound 22]

Compound: O=C(O)c1cc(-c2ccc(Oc3ccc(Cl)cc3)cc2)on1 [Compound 16]
IC50 (HT29 cells): 430 ± 25 µM
IC50 (SW480 cells): > 400 µM
IC50 (HCT116 cells): > 400 µM

Ki (β-catenin/Tcf4 PPI [5]; [7]): 310 ± 11 µM
inhibitory potency for the β-catenin/Tcf PPI in the biochemical assays (β-catenin/Tcf4 PPI [5]): some inhibitory activities
Compound: O=C1c2ccccc2-c2nc3nonc3nc21 [Compound 19B, 9H-Indeno[1,2-B][1,2,5]Oxadiazolo[3,4-E]Pyrazin-9-One]

Compound: O=C(O)CCCn1c2ccccc2c2nc3nonc3nc21 [Compound 33, 4-(5H-[1,2,5]Oxadiazolo[3′,4′:5,6]Pyrazino[2,3-B]Indol-5-yl)Butanoic Acid]
growth of SW480 cells (SW480 cells): did not exhibit the inhibitory activities
growth of HCT116 cells (HCT116 cells): did not exhibit the inhibitory activities
TOPFlash luciferase activity / transactivation of canonical Wnt signaling [3]: did not inhibit

Ki (β-catenin/Tcf4 PPI [5]; [8]): 160 ± 8.9 µM
Ki (β-catenin/Tcf4 PPI [6]; [9]): 120 ± 4.2 µM
Compound: N#CCCCn1c2ccccc2c2nc3nonc3nc21 [Compound 36, 4-(5H-[1,2,5]Oxadiazolo[3′,4′:5,6]Pyrazino[2,3-B]Indol-5-yl)Butanenitrile]

Ki (β-catenin/Tcf4 PPI [5]; [7]): 240 ± 4.6 µM
inhibitory potency for the β-catenin/Tcf PPI in the biochemical assays (β-catenin/Tcf4 PPI [5]): some inhibitory activities
Compound: NC(=S)N/N=C1/c2ccccc2-c2nc3nonc3nc21 [Compound 21]

Ki (β-catenin/Tcf4 PPI [5]; [7]): 1700 ± 28 µM
inhibitory potency for the β-catenin/Tcf PPI in the biochemical assays (β-catenin/Tcf4 PPI [5]): some inhibitory activities
Compound: Nc1nonc1C(=O)N1CCCC1 [Compound 23]

Ki (β-catenin/Tcf4 PPI [5]; [7]): 230 ± 6.2 µM
Compound: N/N=C1/c2ccccc2-c2nc3nonc3nc21 [Compound 20, (Z)-9-Hydrazono-9H-Indeno[1,2-B][1,2,5]Oxadiazolo[3,4-E]Pyrazine]

Compound: CCOC(=O)CCCn1c2ccccc2c2nc3nonc3nc21 [Compound 32, Ethyl 4-(5H-[1,2,5]Oxadiazolo[3′,4′:5,6]Pyrazino[2,3-B]Indol-5-yl)Butanoate]
growth of SW480 cells (SW480 cells): did not exhibit the inhibitory activities
growth of HCT116 cells (HCT116 cells): did not exhibit the inhibitory activities

Compound: CCc1ccc(-c2nc(CSCC(=O)NCCc3ccccc3)c(C)o2)cc1 [Compound 8, reference compound]
FOPFlash luciferase reporter activity ([1]; reference inhibitors): inhibited

Ki (β-catenin/Tcf4 PPI [5]; [8]): 280 ± 12 µM
inhibitory potency for the β-catenin/Tcf PPI in the biochemical assays (β-catenin/Tcf4 PPI [5]): poor inhibitory potency
Ki (β-catenin/Tcf4 PPI [6]; [9]): 120 ± 8.7 µM
Compound: c1ccc2c(c1)[nH]c1nc3nonc3nc12 [Compound 27, 5H-[1,2,5]Oxadiazolo[3′,4′:5,6]Pyrazino[2,3-B]Indole]

IC50 (HT29 cells): 300 µM
IC50 (SW480 cells): 110 ± 21 µM
Ki (β-catenin/Tcf4 PPI [5]; read-out: Ki + SD FP, Table 3, purchased screening hits): 8.7 ± 1 µM
Ki (β-catenin/Tcf4 PPI [6]; read-out: Ki + SD AlphaScreen, Table 3, purchased screening hits): 12 ± 0.78 µM
IC50 (HCT116 cells): 250 ± 21 µM
Compound: O=C(O)c1cc2nc(-c3ccc4c(c3)OCO4)c(-c3ccc4c(c3)OCO4)nc2cc1O [Compound 17]
IC50 ([3]; Homo sapiens, pcDNA3.1-β-catenin transfected HEK293, 24 h, read-out: TOPFlash IC50 ± SD Wnt-activated HEK293): > 100 µM

Ki (β-catenin/Tcf4 PPI [5]; [7]): 1700 ± 37 µM
inhibitory potency for the β-catenin/Tcf PPI in the biochemical assays (β-catenin/Tcf4 PPI [5]): some inhibitory activities
Compound: Nc1nonc1C(=O)NCc1ccccc1 [Compound 25]

Compound: O=C(O)c1ccc2nc(-c3ccc(Cl)cc3)c(-c3ccc(Cl)cc3)nc2c1 [Compound 15]
IC50 (HT29 cells): 41 ± 1 µM
IC50 (SW480 cells): 38 ± 1.1 µM
IC50 (HCT116 cells): 22 ± 5.9 µM

Reference: US10273246B2, “Methods and compositions of substituted 5H-[1,2,5] oxadiazolo [3′,4′:5,6] pyrazino[2,3-B] indole analogs as inhibitors of β-catenin/T-cell factor protein-protein interactions” (University of Utah Research Foundation, priority 2015, dated 2019)
